Data reported in patent US9926297B2, “Bicyclic AZA compounds as muscarinic M1 receptor and/or M4 receptor agonists” (Heptares Therapeutics Limited, priority 2014, dated 2018).

How the values were obtained:
[1] = target: T1, human muscarinic M2 receptor (Homo sapiens, UniProt P08172); test: Alphascreen Surefire phospho-ERK1/2 functional assay, M2; conditions: for Emax: CHO, read-out: % Emax cf. ACh, M2, CHO cells stably expressing human M2, relative to ACh
T1 sequence (P08172 1-466): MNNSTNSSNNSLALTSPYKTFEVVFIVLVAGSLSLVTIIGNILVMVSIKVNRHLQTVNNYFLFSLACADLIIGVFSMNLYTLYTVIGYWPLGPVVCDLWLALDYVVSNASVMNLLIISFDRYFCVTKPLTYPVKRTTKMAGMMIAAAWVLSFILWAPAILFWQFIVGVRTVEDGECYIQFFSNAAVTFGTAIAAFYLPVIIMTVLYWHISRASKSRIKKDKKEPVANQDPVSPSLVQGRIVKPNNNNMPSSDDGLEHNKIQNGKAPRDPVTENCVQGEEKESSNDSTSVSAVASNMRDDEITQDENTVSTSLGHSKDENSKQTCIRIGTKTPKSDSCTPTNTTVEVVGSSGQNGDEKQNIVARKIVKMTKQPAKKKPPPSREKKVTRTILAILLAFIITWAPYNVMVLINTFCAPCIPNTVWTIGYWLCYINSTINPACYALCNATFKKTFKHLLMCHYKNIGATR

[2] = target: human muscarinic M3 receptor (Homo sapiens, UniProt P20309); test: Alphascreen Surefire phospho-ERK1/2 functional assay, M3; conditions: for Emax: CHO, read-out: % Emax cf. ACh, M3, CHO cells stably expressing human M3, relative to ACh; for EC50: pEC50 M3, CHO cells stably expressing human M3, phospho-ERK1/2, * = variable results
[3] = target: T2, human muscarinic M4 receptor (Homo sapiens, UniProt P08173); test: Alphascreen Surefire phospho-ERK1/2 functional assay, M4; type: cell-based; conditions: for EC50: CHO cells stably expressing human M4, phospho-ERK1/2, * = variable results, read-out: pEC50 M4 (converted); for Emax: CHO, read-out: % Emax cf. ACh, M4, CHO cells stably expressing human M4, relative to ACh
T2 construct: expressed in transfected cells
T2 sequence (P08173 1-479): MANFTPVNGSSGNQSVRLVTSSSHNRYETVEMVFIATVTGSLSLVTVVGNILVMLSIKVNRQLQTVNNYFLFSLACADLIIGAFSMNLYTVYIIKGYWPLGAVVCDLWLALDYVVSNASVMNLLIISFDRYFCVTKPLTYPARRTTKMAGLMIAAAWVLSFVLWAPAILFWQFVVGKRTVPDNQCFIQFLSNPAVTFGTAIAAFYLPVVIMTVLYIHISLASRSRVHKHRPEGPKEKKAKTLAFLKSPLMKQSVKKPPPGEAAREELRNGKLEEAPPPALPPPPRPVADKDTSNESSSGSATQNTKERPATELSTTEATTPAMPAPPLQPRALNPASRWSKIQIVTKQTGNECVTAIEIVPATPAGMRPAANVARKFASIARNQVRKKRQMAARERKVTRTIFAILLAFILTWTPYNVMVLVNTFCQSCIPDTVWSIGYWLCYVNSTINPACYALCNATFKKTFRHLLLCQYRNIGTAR

[4] = target: T3, human muscarinic M1 receptor (Homo sapiens, UniProt P11229); test: Alphascreen Surefire phospho-ERK1/2 functional assay, M1; type: cell-based; conditions: for EC50: CHO cells stably expressing human M1, phospho-ERK1/2, * = variable results, read-out: pEC50 M1 (converted); for Emax: CHO, read-out: % Emax cf. ACh, M1, CHO cells stably expressing human M1, relative to ACh
T3 sequence (P11229 1-460): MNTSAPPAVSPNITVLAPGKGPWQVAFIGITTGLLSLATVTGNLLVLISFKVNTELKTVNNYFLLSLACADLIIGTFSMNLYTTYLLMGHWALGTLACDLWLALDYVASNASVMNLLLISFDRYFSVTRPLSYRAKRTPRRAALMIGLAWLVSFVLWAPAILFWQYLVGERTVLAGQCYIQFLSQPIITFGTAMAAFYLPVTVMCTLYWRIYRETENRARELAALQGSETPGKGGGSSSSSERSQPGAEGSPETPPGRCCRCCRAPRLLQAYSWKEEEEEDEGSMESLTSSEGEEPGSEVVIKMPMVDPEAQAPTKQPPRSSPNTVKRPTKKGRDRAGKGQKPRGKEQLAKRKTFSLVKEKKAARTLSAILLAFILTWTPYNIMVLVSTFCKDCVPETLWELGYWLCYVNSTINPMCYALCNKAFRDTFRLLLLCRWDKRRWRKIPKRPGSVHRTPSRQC

human muscarinic M3 receptor, sequence (P20309 whole entry): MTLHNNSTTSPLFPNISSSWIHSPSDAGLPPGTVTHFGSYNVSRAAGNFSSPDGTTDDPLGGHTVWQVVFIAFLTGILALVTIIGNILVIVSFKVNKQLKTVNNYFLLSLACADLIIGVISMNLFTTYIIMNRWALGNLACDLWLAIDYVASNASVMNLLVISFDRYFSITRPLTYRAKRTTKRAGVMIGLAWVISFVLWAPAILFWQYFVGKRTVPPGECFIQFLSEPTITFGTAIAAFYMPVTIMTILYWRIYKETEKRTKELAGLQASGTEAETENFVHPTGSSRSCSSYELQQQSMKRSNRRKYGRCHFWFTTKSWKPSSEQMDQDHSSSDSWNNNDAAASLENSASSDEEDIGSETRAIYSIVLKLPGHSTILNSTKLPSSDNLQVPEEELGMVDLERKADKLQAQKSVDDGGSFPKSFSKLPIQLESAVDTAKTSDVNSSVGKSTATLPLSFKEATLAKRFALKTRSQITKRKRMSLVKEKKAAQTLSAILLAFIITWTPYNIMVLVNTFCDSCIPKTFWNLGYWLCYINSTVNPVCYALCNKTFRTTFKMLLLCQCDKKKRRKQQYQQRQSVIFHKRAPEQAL

`CCCn1nccc1C1CCN(C2CC3(CCN(C(=O)OCC)C3)C2)CC1` (single isomer, unassigned) [1-49 Isomer 2, ethyl 2-[4-(1-propyl-1H-pyrazol-5-yl)piperidin-1-yl]-6-azaspiro[3.4]octane-6-carboxylate] gave an EC50 [1] of over 20 µM, an Emax [1] of 21% and an Emax [2] of 9%. For the same compound, the EC50 [2] was over 20 µM, the EC50 [3] was 79.4 nM and the Emax [3] was 92%. The EC50 [4] was 6310 nM and the Emax [4] was 71%.
Compound `CCOC(=O)N1CCC2(CC(N3CCC(c4cscn4)CC3)C2)C1` (single isomer, unassigned) [1-50 Isomer 2, ethyl 2-[4-(1,3-thiazol-4-yl)piperidin-1-yl]-6-azaspiro[3.4]octane-6-carboxylate] has an EC50 [1] of over 20 µM, an Emax [1] of 20% and an Emax [2] of 8%. It also gave an EC50 [2] of over 20 µM, an EC50 [3] of 2 nM and an Emax [3] of 122%. The EC50 [4] was 7.94 nM and the Emax [4] was 124%.
`CCOC(=O)N1CCC2(CC(N3CCC(c4nccn4CC#N)CC3)C2)C1` (single isomer, unassigned) [1-52 Isomer 2, ethyl 2-{4-[1-(cyanomethyl)-1H-imidazol-2-yl]piperidin-1-yl}-6-azaspiro[3.4]octane-6-carboxylate] showed an EC50 [1] of over 20 µM, an Emax [1] of 15% and an Emax [2] of 20%. For the same compound, the EC50 [2] was over 20 µM, the EC50 [3] was 15.8 nM and the Emax [3] was 106%. It also gave an EC50 [4] of 158 nM and an Emax [4] of 102%.
With `CCOC(=O)N1CCC2(CC(N3CCC(c4nn(C)cc4C)CC3)C2)C1` (single isomer, unassigned) [1-56 Isomer 2, ethyl 2-[4-(1,4-dimethyl-1H-pyrazol-3-yl)piperidin-1-yl]-6-azaspiro[3.4]octane-6-carboxylate] the EC50 [1] was over 20 µM, the Emax [1] was 0% and the Emax [2] was 3%. It also gave an EC50 [2] of over 20 µM, an EC50 [3] of 126 nM and an Emax [3] of 89%. The EC50 [4] was 1000 nM and the Emax [4] was 30%.
For `COC(=O)N1CCC2(CC(N3CCC(c4c(C)cnn4C)CC3)C2)C1` (single isomer, unassigned) [1-57 Isomer 2, methyl 2-[4-(1,4-dimethyl-1H-pyrazol-5-yl)piperidin-1-yl]-6-azaspiro[3.4]octane-6-carboxylate], the EC50 [1] was over 20 µM, the Emax [1] was 7% and the Emax [2] was 7%. For the same compound, the EC50 [2] was over 20 µM, the EC50 [3] was 126 nM and the Emax [3] was 69%. It also gave an EC50 [4] of 2000 nM and an Emax [4] of 63%.
`CCOC(=O)N1CCC2(CC(N3CCC(c4c(C)cnn4C)CC3)C2)C1` (single isomer, unassigned) [1-58 Isomer 2, ethyl 2-[4-(1,4-dimethyl-1H-pyrazol-5-yl)piperidin-1-yl]-6-azaspiro[3.4]octane-6-carboxylate] showed an EC50 [1] of over 20 µM, an Emax [1] of 13% and an Emax [2] of 2%. The EC50 [2] was over 20 µM, the EC50 [3] was 31.6 nM and the Emax [3] was 93%. For the same compound, the EC50 [4] was 794 nM and the Emax [4] was 55%.
`CCOC(=O)N1CCC2(CC(N3CCC(n4nccn4)CC3)C2)C1` (single isomer, unassigned) [1-61 Isomer 2, ethyl 2-[4-(2H-1,2,3-triazol-2-yl)piperidin-1-yl]-6-azaspiro[3.4]octane-6-carboxylate] showed an EC50 [1] of over 20 µM, an Emax [1] of 1% and an Emax [2] of 2%. It also gave an EC50 [2] of over 20 µM, an EC50 [3] of 25.1 nM and an Emax [3] of 97%. For the same compound, the EC50 [4] was 316 nM and the Emax [4] was 66%.
Work on `CCOC(=O)N1CCC2(CC(N3CCC(C4CCCN4)CC3)C2)C1` (single isomer, unassigned) [2-1 Isomer 2, ethyl 2-[4-(pyrrolidin-2-yl)piperidin-1-yl]-6-azaspiro[3.4]octane-6-carboxylate] yielded an EC50 [1] of over 20 µM, an EC50 [2] of over 20 µM and an EC50 [3] of 316 nM. It also gave an Emax [3] of 63%, an EC50 [4] of over 20000 nM and an Emax [4] of 6%.
`CCOC(=O)N1CCC2(CC(N3CCC(C4CCCN4C=O)CC3)C2)C1` (single isomer, unassigned) [2-2 Isomer 2, ethyl 2-[4-(1-formylpyrrolidin-2-yl)piperidin-1-yl]-6-azaspiro[3.4]octane-6-carboxylate] gave an EC50 [1] of over 20 µM, an Emax [1] of 53% and an Emax [2] of 16%. It also gave an EC50 [2] of over 20 µM, an EC50 [3] of 63.1 nM and an Emax [3] of 79%. The EC50 [4] was 794 nM and the Emax [4] was 39%.
`CCOC(=O)N1CCC2(CC(N3CCC(C4CCCN4C(C)=O)CC3)C2)C1` (single isomer, unassigned) [2-3 Isomer 2, ethyl 2-[4-(1-acetylpyrrolidin-2-yl)piperidin-1-yl]-6-azaspiro[3.4]octane-6-carboxylate] gave an EC50 [1] of over 20 µM, an Emax [1] of 14% and an Emax [2] of 4%. It also gave an EC50 [2] of over 20 µM, an EC50 [3] of 50.1 nM and an Emax [3] of 89%. It also gave an EC50 [4] of 10000 nM and an Emax [4] of 32%.
With `CCOC(=O)N1CCC2(CC(N3CCC(C4CCCN4C(=O)C(F)(F)F)CC3)C2)C1` (single isomer, unassigned) [2-4 Isomer 2, ethyl 2-{4-[1-(trifluoroacetyl)pyrrolidin-2-yl]piperidin-1-yl}-6-azaspiro[3.4]octane-6-carboxylate] the EC50 [1] was over 20 µM, the Emax [1] was 2% and the Emax [2] was 3%. It also gave an EC50 [2] of over 20 µM, an EC50 [3] of 50.1 nM and an Emax [3] of 110%. It also gave an EC50 [4] of 316 nM and an Emax [4] of 102%.
Work on `CCOC(=O)N1CCC2(CC(N3CCC(C4CCCN4C(=O)CC)CC3)C2)C1` (single isomer, unassigned) [2-6 Isomer 2, ethyl 2-[4-(1-propanoylpyrrolidin-2-yl)piperidin-1-yl]-6-azaspiro[3.4]octane-6-carboxylate] yielded an EC50 [1] of over 20 µM, an Emax [1] of 30% and an Emax [2] of 16%. The EC50 [2] was over 20 µM, the EC50 [3] was 15.8 nM and the Emax [3] was 132%. It also gave an EC50 [4] of 3160 nM and an Emax [4] of 57%.
For `CCOC(=O)N1CCC2(CC(N3CCC([C@@H]4CCCN4C(=O)CC)CC3)C2)C1` (single isomer, unassigned) [2-7 Isomer 2], the EC50 [1] was over 20 µM, the Emax [1] was 13% and the Emax [2] was 27%. For the same compound, the EC50 [2] was 7.94 µM, the EC50 [3] was 12.6 nM and the Emax [3] was 100%. The EC50 [4] was 794 nM and the Emax [4] was 41%.
With `CCOC(=O)N1CCC2(CC(N3CCC([C@@H]4CCCN4C(=O)C4CC4)CC3)C2)C1` (single isomer, unassigned) [2-8 Isomer 2] the EC50 [1] was over 20 µM, the Emax [1] was 3% and the Emax [2] was 4%. It also gave an EC50 [2] of over 20 µM, an EC50 [3] of 15.8 nM and an Emax [3] of 86%. It also gave an EC50 [4] of 631 nM and an Emax [4] of 36%.
For `CCOC(=O)N1CCC2(CC(N3CCC([C@@H]4CCCN4C(=O)C4CCC4)CC3)C2)C1` (single isomer, unassigned) [2-9 Isomer 2], the EC50 [1] was over 20 µM, the Emax [1] was 4% and the Emax [2] was 6%. The EC50 [2] was over 20 µM, the EC50 [3] was 10 nM and the Emax [3] was 104%. The EC50 [4] was 1000 nM and the Emax [4] was 43%.
In the case of `CCOC(=O)N1CCC2(CC(N3CCC(C4CCCN4C(=O)OC)CC3)C2)C1` (single isomer, unassigned) [2-11 Isomer 2, ethyl 2-{4-[1-(methoxycarbonyl)pyrrolidin-2-yl]piperidin-1-yl}-6-azaspiro[3.4]octane-6-carboxylate], the EC50 [1] is reported as over 20 µM, the Emax [1] is reported as 7% and the Emax [2] is reported as 7%. It also gave an EC50 [2] of over 20 µM, an EC50 [3] of 25.1 nM and an Emax [3] of 100%. The Emax [4] was 39%.
